The values below come from US20160011174A1, “Assay for Determining the Cell Number in Cultured Cells” (KEELE UNIVERSITY, priority 2013, published 2016).

In series [1] the test system is hepG2 cells. Description: Removal of added AA from DMEM medium by hepG2 cells (SIFT-MS headspace). As to conditions: 20 million hepG2 cells; for headspace AA concentration after incubation with cells: 16 hours. The series is classed as in vitro ADME, human. Here is the method: (§1) The inhibitor solutions were then added to volumes of medium so that the final DMSO concentration was always 0.1% v/v (or ˜14 500 μM). In some experiments, inhibitors were added to hMSCs during routine culture, some 24 hours prior to proceeding to the next phase of the analysis, but this pre-treatment was not employed in the hepG2 experiments. […] The importance of precursor ions in the analysis is explained further in the SIFT-MS section below. The method used for the preparation of cell cultures for SIFTMS headspace analysis was adapted from the previous studies published in 2003 (ref. 21) and 2009 (ref. 22). On the evening prior to the analysis, the cells were removed from the tissue culture flasks using trypsin, counted using a haemocytometer, and suspended in fresh DMEM media containing the ALDH inhibitor where appropriate, inside 150 mL glass bottles. […] The headspace of each bottle was purged with dry cylinder air before the bottles were finally sealed with metal caps, which incorporate rubber septa, and placed inside an incubator to be held at 37° C. for around 16 hours/overnight.
The methodology of SIFT-MS analyses for the sampling and quantification of compounds in the headspace of liquid samples has been described in detail previously (Refs 21,22,27-32). […] The product ions and the precursor ions are then analysed by a quadrupole mass spectrometer/detection system. Throughout the present study the instrument was operated in the multiple ion monitoring (MIM) mode, during which the desired precursor ion and its hydrates (Ref 33) and the characteristic product ions, are continuously monitored. This system, in combination with the previously compiled kinetics data for the reactions between the precursor ions and neutral molecules (Refs 34,35 rapidly allows the simultaneous absolute quantification of the concentrations of several selected volatile compounds of interest. The simultaneous detection and analysis of AA and DMS in a mixture presents a peculiar problem to SIFT-MS because of the overlap of characteristic product ions on which the analysis depends. However, the ion chemistry involved has been studied in detail and the kinetics database entries required for the accurate analyses of these two compounds by SIFT-MS have been constructed by following the guidelines given by previous studies (refs 34,35). In brief, AA was analysed using H3O^+ precursor ions and the unique protonated AA characteristic product ion at m/z 45, as described in detail in a recent paper (Ref 36). […]
Removal of AA from DMEM medium by cellular action. […] Identical medium samples without cells were also analysed (as described above) to obtain the starting (background) headspace AA concentration. […]

A further series concerns hMSCs. Description: SIFT-MS headspace DMS in hMSC cultures (DMSO reduction to DMS). The series is classed as cell-based, human. To be noted: approximately 5(10^6) hMSCs, 24 hours pre-treatment plus 16 hours sealed incubation, 0.1% v/v DMSO. Here is the method: (§2) Human mesenchymal stem cells, hMSCs, are a primary cell type, and were isolated from a bone marrow aspirate sample (person; Lonza, US) using the plastic-adherence methodology and the hepG2 cells are of a human hepatocellular carcinoma cell line (Eton Bioscience, US), a cell line commonly used for the study of liver function. In both cases, the cells were cultured to confluence in Dulbecco's modified Eagle's medium (DMEM; Lonza, UK), supplemented with 10% v/v foetal bovine serum (FBS; Lonza, UK), 50 U mL^−1 penicillin-streptomycin (Lonza, UK) and 2 mM L-glutamine (Lonza, UK). The hMSCs additionally contained 1% v/v non-essential amino acids. The hMSCs were not cultured beyond passage number 4, whereas the well-differentiated hepG2 cells were analysed before passage number 20.
(§3) The inhibitor solutions were then added to volumes of medium so that the final DMSO concentration was always 0.1% v/v (or ˜14 500 μM). […] On the evening prior to the analysis, the cells were removed from the tissue culture flasks using trypsin, counted using a haemocytometer, and suspended in fresh DMEM media containing the ALDH inhibitor where appropriate, inside 150 mL glass bottles. […]
(§4) The methodology of SIFT-MS analyses for the sampling and quantification of compounds in the headspace of liquid samples has been described in detail previously (Refs 21,22,27-32). […]

Series [2] concerns hepG2 cells. Description: SIFT-MS headspace DMS in hepG2 cultures (DMSO reduction to DMS). The series is classed as cell-based, human. The protocol: as §2, §1
(§5) The methodology of SIFT-MS analyses for the sampling and quantification of compounds in the headspace of liquid samples has been described in detail previously (Refs 21,22,27-32). […] The product ions and the precursor ions are then analysed by a quadrupole mass spectrometer/detection system. Throughout the present study the instrument was operated in the multiple ion monitoring (MIM) mode, during which the desired precursor ion and its hydrates (Ref 33) and the characteristic product ions, are continuously monitored. […] In brief, AA was analysed using H3O^+ precursor ions and the unique protonated AA characteristic product ion at m/z 45, as described in detail in a recent paper (Ref 36). […]

The test system of series [3] is hepG2 cells. Description: Live-dead staining viability after sealed bottle incubation. As to conditions: 1.5(10^7) hepG2 cells sealed 16 hours; 200 μM DEAB or 20 μM DSF. The series is classed as cell-based, human. Here is the method:
In order to assess any changes in the viability of hepG2 cells due to the method of analysis, which requires the cells to be sealed inside a glass bottle for around 16 hours, cells were cultured to near-confluence using the untreated medium described earlier, and observed using a live-dead staining (Sigma, UK), and confocal microscopy. […] The cell-suspensions were then sealed inside 150 mL glass bottles and incubated at 37° C. for 16 hours. The suspensions were then removed from the bottles and assessed by the same live-dead staining.

The test system of series [4] is ALDH. Kind of series: SIFT-MS headspace AA in hMSC cultures with ALDH inhibitors. The series is classed as cell-based, human. To be noted: approximately 5(10^6) hMSCs, 24 hours pre-treatment plus 16 hours sealed incubation. The protocol:
as §2, §3, §4

Series [5] has as its system ALDH. Kind of series: SIFT-MS headspace acetaldehyde (AA) in hepG2 cultures with ALDH inhibitors. The series is classed as cell-based, human. The protocol:
as §2
as §3, with “μM). In some experiments, inhibitors were added to hMSCs during routine culture, some 24 hours prior to proceeding to the next phase of the analysis, but this pre-treatment was not employed in the hepG2 experiments.” for “μM).”
as §5

Series [6] concerns Caco2/TC7 colon tumour cell cultures. To be noted: cited from earlier work.
The mark [7] stands for this setting: 200 μM DEAB, about 1(10^7) hepG2 cells, 16 hours.

For `CC=O` [AA, acetaldehyde], the “reduction of headspace AA concentration by cells” value with hepG2 cells [1] (50 mL DMEM, 16 hours at 37° C.) is reported as “approximately 90%”. The “headspace AA concentration after incubation with cells” value with hepG2 cells [1] (starting 59 ppbv) amounted to 20 ppbv; in the series with hepG2 cells [1] (starting 396 ppbv) it was 48 ppbv; in the series with hepG2 cells [1] (starting 990 ppbv) it was 118 ppbv.
For `CCN(CC)c1ccc(C=O)cc1` [DEAB], the “effect on DMS production from DMSO” value with hMSCs is “effective at preventing DMS production from DMSO”. Besides, the “decline in headspace DMS” value in the series on hepG2 cells [2] (0 to 25 μM DEAB, 1.5(10^7) hepG2 cells, 0.1% v/v DMSO) was found to be 30%. For the same compound, in the series with hepG2 cells [2] (200 μM DEAB, 1(10^4) to 5(10^6) hepG2 cells, 0.1% v/v DMSO), the DMS production result is on record as “clearly reduced”. For the same compound, in the series with hepG2 cells [2] (200 μM DEAB, 5(10^6) up to 3(10^7) hepG2 cells, 0.1% v/v DMSO), the “decline of slope of DMS concentration versus cell number” value was “about 30%”. In the series with hepG2 cells [3], the “viability by live-dead staining” value was “little or no decline in the viability”. Also, in the series with ALDH [4], the “effect on ALDH / ability of hMSCs to metabolise AA” value was “effective inhibitor of ALDH”. Also, in the series on ALDH [5] (setting [7]), the “peak AA concentration in the liquid phase” value turned out to be 4 µM and the “peak headspace AA concentration” value was “around 600 ppbv”. For the same compound, in the series with ALDH [5] (1.5(10^7) hepG2 cells, 16 hours at 37° C., DEAB in 0.1% v/v DMSO), the “headspace AA concentration with increasing DEAB concentration” value is “general increase in the AA concentration”.
In the case of `C[S+](C)[O-]` [DMSO, dimethyl sulphoxide], the “liquid phase DMS concentration formed from DMSO” value in the series with hepG2 cells [2] (0.1% v/v DMSO in medium, overnight incubation, by Henry's Law) was over 300 nM. In series [6], the “DMSO concentration causing no observable cytotoxicity” value is given as “up to 10 % (v/v)”.
